Patent US11648254B2 (Kumquat Biosciences Inc., priority 2021, dated 2023)
Like-named read-outs stand apart in the source and are kept apart here.

What was measured:
[1] = tested on: NCI-H1975 cells (EGFR T790M L858R); experiment: EGFR-SOS cellular inhibition assay (CellTiter-Glo, 3D); format: cell-based; conditions: Homo sapiens
SOS1 = SOS1 (Homo sapiens (Human), UniProt Q07889); experiment: Ras-SOS interaction assay (HTRF); format: biochemical
[2] = tested on: MIA PaCa-2 cells (K-Ras G12C); experiment: Ras-SOS cellular growth inhibition assay (CellTiter-Glo, 3D); format: cell-based; conditions: Homo sapiens
Outline: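 MIA PaCa-2 cells grown in ultra-low-attachment plates (3D) in DMEM/Ham's F12 with 10% FCS and 2.5% horse serum, treated the day after seeding with a 9-point 3-fold compound series for about 5 days. Viability by CellTiter-Glo luminescence; IC50 from four-parameter fit.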

[3] = 120 h, NCI-H1975, 3D proliferation, about 5 days, read-out: Bio-Cell-Prolif-3D (H1975 IC50)
[4] = NCI-H1975, EGFR T790M L858R, read-out: IC50 in inhibiting growth of NCI-H1975 cell line
[5] = K-RasG13D utilized, read-out: IC50 inhibition of SOS
[6] = K-RasG13D, read-out: IC50 value against SOS1
[7] = MIA PaCa-2, 120 h, MIA PaCa-2, 3D proliferation, about 5 days, read-out: Bio-Cell-Prolif-3D (MiaPaca2 IC50)
[8] = MIA PaCa-2, MIA PaCa-2, read-out: IC50 in inhibiting MIA PaCa-2 cell growth

Chain of SOS1 (Q07889 564-1049): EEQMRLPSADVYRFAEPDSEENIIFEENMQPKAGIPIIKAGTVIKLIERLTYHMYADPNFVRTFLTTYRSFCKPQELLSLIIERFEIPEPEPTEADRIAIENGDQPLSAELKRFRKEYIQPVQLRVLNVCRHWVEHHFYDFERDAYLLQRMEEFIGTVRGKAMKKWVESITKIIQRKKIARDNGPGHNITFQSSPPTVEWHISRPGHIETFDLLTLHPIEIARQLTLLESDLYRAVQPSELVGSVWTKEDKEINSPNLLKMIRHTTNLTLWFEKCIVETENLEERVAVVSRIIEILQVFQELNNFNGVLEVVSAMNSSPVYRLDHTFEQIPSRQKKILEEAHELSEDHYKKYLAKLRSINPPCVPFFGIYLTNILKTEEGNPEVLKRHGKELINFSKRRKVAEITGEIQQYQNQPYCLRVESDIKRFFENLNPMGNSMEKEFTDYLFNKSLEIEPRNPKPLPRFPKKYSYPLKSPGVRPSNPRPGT

IC50 [1, 3] | IC50 [1, 4] | IC50 (SOS1; [5]) | IC50 (SOS1; [6]) | IC50 [2, 7] | IC50 [2, 8] | SMILES
≤ 1000 nM | < 500 nM | < 100 nM | < 50 nM | ≤ 1000 nM | – | Cc1nc(N[C@H](C)c2cccc(C(F)F)c2F)c2cc(C3(C#N)CC3)c(OC[C@H]3CCCN3C)nc2n1 [Compound 235, 1-(4-(((R)-1-(3-(difluoromethyl)-2-fluorophenyl)ethyl)amino)-2-methyl-7-(((R)-1-methylpyrrolidin-2-yl)methoxy)pyrido [2,3-d]pyrimidin-6-yl)cyclopropane-1-carbonitrile]
≤ 1000 nM | – | < 100 nM | < 50 nM | ≤ 1000 nM | – | C[C@@H](Nc1ncnc2nc(OC3COC3)c(C3CCS(=O)(=O)CC3)cc12)c1cccc(C(F)F)c1F [Compound 227, (R)-4-(4-((1-(3-(difluoromethyl)-2-fluorophenyl)ethyl)amino)-7-(oxetan-3-yloxy)pyrido[2,3-d]pyrimidin-6-yl)tetrahydro-2H-thiopyran 1,1-dioxide]
≤ 1000 nM | < 500 nM | < 100 nM | < 50 nM | ≤ 1000 nM | < 500 nM | COc1nc2nc(OC[C@H]3CCCN3C)nc(N[C@H](C)c3cccc(C(F)F)c3F)c2cc1C1(C#N)CC1 [Compound 270, 1-(4-(((R)-1-(3-(difluoromethyl)-2-fluorophenyl)ethyl)amino)-7-methoxy-2-(((R)-1-methylpyrrolidin-2-yl)methoxy)pyrido [2,3-d]pyrimidin-6-yl)cyclopropane-1-carbonitrile]
≤ 1000 nM | < 500 nM | < 100 nM | < 50 nM | ≤ 1000 nM | < 500 nM | CC(C)N1CCC(c2cc3c(N[C@H](C)c4cccc(C(F)(F)C5CCN(C(C)C)CC5)c4F)ncnc3nc2Cl)CC1 [Compound 218, (R)-7-chloro-N-(1-(3-(difluoro(1-isopropylpiperidin-4-yl)methyl)-2-fluorophenyl)ethyl)-6-(1-isopropylpiperidin-4-yl)pyrido[2,3-d]pyrimidin-4-amine]
≤ 1000 nM | < 500 nM | < 100 nM | < 50 nM | ≤ 1000 nM | < 500 nM | Cc1nc(N[C@H](C)c2cccc(C(F)(F)F)c2F)c2cc(N3CCN(C(C)C)CC3)c(Cl)nc2n1 [Compound 387, (R)-7-chloro-N-(1-(2-fluoro-3-(trifluoromethyl)phenyl)ethyl)-6-(4-isopropylpiperazin-1-yl)-2-methylpyrido[2,3-d] pyrimidin-4-amine]
≤ 1000 nM | < 500 nM | < 100 nM | < 50 nM | ≤ 1000 nM | – | COc1nc2nc(C)nc(N[C@H](C)c3cccc(C(F)(F)CN4CCC4)c3F)c2cc1C1(C#N)CC1 [Compound 277, (R)-1-(4-((1-(3-(2-(azetidin-1-yl)-1,1-difluoroethyl)-2-fluorophenyl)ethyl)amino)-7-methoxy-2-methylpyrido [2,3-d]pyrimidin-6-yl)cyclopropane-1-carbonitrile]
≤ 1000 nM | < 500 nM | < 100 nM | < 50 nM | ≤ 1000 nM | < 500 nM | C[C@@H](Nc1ncnc2nc(Cl)c(N3CCS(=O)(=O)CC3)cc12)c1cccc(C(F)(F)F)c1F [Compound 330, (R)-4-(7-chloro-4-((1-(2-fluoro-3-(trifluoromethyl)phenyl)ethyl)amino)pyrido[2,3-d]pyrimidin-6-yl)thiomorpholine 1,1-dioxide]
≤ 1000 nM | < 500 nM | < 100 nM | < 50 nM | ≤ 1000 nM | < 500 nM | CCN1CCC(c2cc3c(N[C@H](C)c4cccc(C(F)F)c4F)nc(C)nc3nc2OC)CC1 [Compound 119, (R)-N-(1-(3-(difluoromethyl)-2-fluorophenyl)ethyl)-6-(1-ethylpiperidin-4-yl)-7-methoxy-2-methylpyrido[2,3-d]pyrimidin-4-amine]
≤ 1000 nM | < 500 nM | < 100 nM | < 50 nM | 1000 to 10000 nM | – | COc1nc2nc(C)nc(N[C@H](C)c3cccc(C(F)(F)C(C)(C)O)c3)c2cc1C1CCS(=O)(=O)CC1 [Compound 173, (R)-4-(4-((1-(3-(1,1-difluoro-2-hydroxy-2-methylpropyl)phenyl)ethyl)amino)-7-methoxy-2-methylpyrido[2,3-d]pyrimidin-6-yl)tetrahydro-2H-thiopyran 1,1-dioxide]
≤ 1000 nM | < 500 nM | < 100 nM | < 50 nM | ≤ 1000 nM | < 500 nM | COc1nc2nc(C)nc(N[C@H](C)c3cccc(C(F)(F)C4CCN(C(C)C)CC4)c3F)c2cc1N1CCN(C(C)C)CC1 [Compound 163, (R)-N-(1-(3-(difluoro(1-isopropylpiperidin-4-yl)methyl)-2-fluorophenyl)ethyl)-6-(4-isopropylpiperazin-1-yl)-7-methoxy-2-methylpyrido[2,3-d]pyrimidin-4-amine]
≤ 1000 nM | < 500 nM | < 100 nM | < 50 nM | ≤ 1000 nM | < 500 nM | Cc1nc(N[C@H](C)c2cccc(C(F)(F)F)c2C)c2cc(C3CCN(C(C)C)CC3)c(Cl)nc2n1 [Compound 392, (R)-7-chloro-6-(1-isopropylpiperidin-4-yl)-2-methyl-N-(1-(2-methyl-3-(trifluoromethyl)phenyl)ethyl)pyrido [2,3-d]pyrimidin-4-amine]
≤ 1000 nM | – | < 100 nM | < 50 nM | ≤ 1000 nM | – | COc1nc2nc(C)nc(N[C@H](C)c3cccc(C(F)F)c3F)c2cc1[C@H]1CCCN(C)C1 [Compound 135, N-((R)-1-(3-(difluoromethyl)-2-fluorophenyl)ethyl)-7-methoxy-2-methyl-6-((R)-1-methylpiperidin-3-yl)pyrido[2,3-d] pyrimidin-4-amine]
≤ 1000 nM | < 500 nM | < 100 nM | < 50 nM | ≤ 1000 nM | – | COc1nc2nc(C)nc(N[C@H](C)c3cccc(C(F)(F)F)c3F)c2cc1C1CCN(C)CC1 [Compound 309, (R)-N-(1-(2-fluoro-3-(trifluoromethyl)phenyl)ethyl)-7-methoxy-2-methyl-6-(1-methylpiperidin-4-yl)pyrido[2,3-d]pyrimidin-4-amine]
≤ 1000 nM | < 500 nM | < 100 nM | < 50 nM | ≤ 1000 nM | – | COc1nc2nc(C)nc(N[C@H](C)c3cccc(C(F)F)c3F)c2cc1C1(C#N)CCS(=O)(=O)CC1 [Compound 126, (R)-4-(4-((1-(3-(difluoromethyl)-2-fluorophenyl)ethyl)amino)-7-methoxy-2-methylpyrido[2,3-d]pyrimidin-6-yl)tetrahydro-2H-thiopyran-4-carbonitrile 1,1-dioxide]
1000 to 10000 nM | – | < 100 nM | < 50 nM | > 10000 nM | – | Cc1nc(N[C@H](C)c2cccc(C(F)F)c2F)c2cc(C3CCS(=N)(=O)CC3)c(OCCN(C)C)nc2n1 (stereo partly drawn) [Compound 250, (R)-4-(4-((1-(3-(difluoromethyl)-2-fluorophenyl)ethyl)amino)-7-(2-(dimethylamino)ethoxy)-2-methylpyrido[2,3-d]pyrimidin-6-yl)-1-iminohexahydro-116-thiopyran 1-oxide]
≤ 1000 nM | < 500 nM | < 100 nM | < 50 nM | ≤ 1000 nM | < 500 nM | CC(C)N1CCC(C(F)(F)c2cccc([C@@H](C)Nc3ncnc4nc(Cl)c(N5CCN(C(C)C)CC5)cc34)c2)CC1 [Compound 291, (R)-7-chloro-N-(1-(3-(difluoro(1-isopropylpiperidin-4-yl)methyl)phenyl)ethyl)-6-(4-isopropylpiperazin-1-yl)pyrido[2,3-d] pyrimidin-4-amine]
≤ 1000 nM | < 500 nM | < 100 nM | < 50 nM | ≤ 1000 nM | < 500 nM | COc1nc2ncnc(N[C@H](C)c3cccc(C(F)F)c3F)c2cc1C1CCN(C)CC1 [Compound 412, (R)-N-(1-(3-(difluoromethyl)-2-fluorophenyl)ethyl)-7-methoxy-6-(1-methylpiperidin-4-yl)pyrido[2,3-d] pyrimidin-4-amine]
≤ 1000 nM | < 500 nM | < 100 nM | < 50 nM | ≤ 1000 nM | < 500 nM | COCCOc1nc2nc(C)nc(N[C@H](C)c3cccc(C(F)F)c3F)c2cc1C1CCS(=O)(=O)CC1 [Compound 157, (R)-4-(4-((1-(3-(difluoromethyl)-2-fluorophenyl)ethyl)amino)-7-(2-methoxyethoxy)-2-methylpyrido[2,3-d]pyrimidin-6-yl)tetrahydro-2H-thiopyran 1,1-dioxide]

SMILES | IC50 [1, 3] | IC50 [1, 4] | IC50 (SOS1; [5]) | IC50 (SOS1; [6]) | IC50 [2, 7] | IC50 [2, 8]
COc1nc2nc(C)nc(N[C@H](C)c3cccc(C(F)F)c3F)c2cc1C1(C#N)CCN(C)CC1 [Compound 128, (R)-4-(4-((1-(3-(difluoromethyl)-2-fluorophenyl)ethyl)amino)-7-methoxy-2-methylpyrido[2,3-d]pyrimidin-6-yl)-1-methylpiperidine-4-carbonitrile] | ≤ 1000 nM | – | < 100 nM | < 50 nM | ≤ 1000 nM | < 500 nM
